Source: patent US8017786B2, “Substituted β-phenyl-α-hydroxy-propanoic acid, synthesis method and use thereof” (Northwest University, priority 2006, dated 2011)

Key:
Format in all cases: in vivo, rat
[1] = test system: rats with middle cerebral artery occlusion; assay: Cerebral microcirculatory blood flow in rats with middle cerebral artery occlusion
Protocol: 60 SD rats with a body weight of 220±20 g were randomly divided into normal control group, model control group, salvianic acid injection group (ip. 1 mL/kg), and group of bornyl β-(3,4-dihydroxylphenyl)-α-hydroxylpropionate ester at a small, middle and large dose respectively (ip. 5, 15, and 35 mg/kg). The rats of normal group and model group were administered with equal-volume of physiologic saline by ip. The rats were anesthetized by intraperitoneal injection of 1% pentobarbital sodium at an amount of 40 mg/kg, then placed at supine position, head fixed, and cut skin along cervical middle line. Trachea cannula, was inserted into the rats and they were allowed to spontaneous respire. Right common jugular vein and common carotid artery were isolated and a suture was introduced for later use. Animals were fixed on a rat stereotaxic apparatus, a cranial window with a size of 6×8 mm was opened at the right temple with a dental drill, after hemostasis, cerebral dura mater was cut open with scissors to expose cerebral pia mater. The window was covered and sealed with glass and dental cement, and the laser probe of a laser-doppler microcirculatory blood flow meter was fixed on the cranial window. Then the animals were fixed at lateral position, the right common carotid artery was lifted, ligated at the proximal part and carefully cut with scissors, a nylon suture having a diameter of about 0.3 mm was introduced into the artery. The distance between the artery cut and the paropia of the rats was marked before the suture was introduced. […] When the suture arrived at middle cerebral artery, an abrupt decrease of the microcirculatory blood flow would be observed. After the observation of a decrease in the microcirculatory blood flow, the suture was further penetrated by about 1 mm, and the distal end of the cut and the suture in the artery were ligated securely. Spare suture was cut-off. After the end of the test, it was checked whether the nylon suture blocked the initiation site of the middle cerebral artery, and the data of any animal whose artery was not blocked were cancelled. The animals of the control group were not treated. After the cranial window was prepared, the probe of J I2200 type laser-doppler microcirculatory blood flow meter was fixed at the cranial window, and the probe was maintained without displacement and rotation during the whole test. The microcirculatory blood flows before ligation and 5, 15, 30, 45 and 60 min after ligation were recorded, and the data of the animals in the drug-treatment groups were recorded at the same time points. The mean microcirculatory blood flow observed within 1 min at each time point was designated as the microcirculatory blood flow of the respective time point.

[2] = test system: creatine kinase isoenzyme (CK-MB); assay: Serum CK-MB activity in rats with myocardial ischemia; details: for CK-MB: serum, 24 h after ligation
Protocol: (§1) At 0.5 h after the rats of these groups were administered intragastrically, the standard II lead electrocardiogram (before modeling) was recorded, and the height of ST-T segment was measured. The rats of sham operation group were then subjected to coronary artery braid without ligation, and the rats of other groups were subjected to coronary artery ligation in accordance with the following method to establish cute myocardial ischemia models. The rats were subjected to etherization, fixed at supine position, and their normal electrocardiograms (before modeling) were recorded. The skin of left thorax was incised under aseptic conditions, the 4th intercostal muscles were isolated in blunt way, the heart was extruded by light pressure to the right thorax, the left anterior descending coronary artery was ligated at a position 2˜3 mm departing from the left coronary artery origin and between the pulmonary conus and the left auricle of heart, then the heart was sent back to thorax cavity immediately and sutured the incision. Penicillin was smeared topically for the prevention of infections. After operation, the electrocardiogram of postischemia was recorded immediately (at 0 min after modeling), and the height of ST-T segment was measured.

malondialdehyde (MDA) = assay: Serum MDA content in rats with myocardial ischemia; details: for MDA: serum, 24 h after ligation
Protocol: as §1

With `CC1(C)C2CCC1(C)C(OC(=O)C(O)Cc1ccc(O)c(O)c1)C2` (stereo not drawn) [bornyl salvianate ester, bornyl β-(3,4-dihydroxylphenyl)-α-hydroxylpropionate ester] the Microcirculatory blood flow ([1]; 5 mg/kg ip, 5 min after ligation) was 11.4 ± 5.4 mL, the Microcirculatory blood flow ([1]; 5 mg/kg ip, 15 min after ligation) was 12.4 ± 4.6 mL and the Microcirculatory blood flow ([1]; 5 mg/kg ip, 30 min after ligation) was 12.9 ± 5.1 mL. For the same compound, the Microcirculatory blood flow ([1]; 5 mg/kg ip, 45 min after ligation) was 16.1 ± 4.1 mL, the Microcirculatory blood flow ([1]; 5 mg/kg ip, 60 min after ligation) was 16.0 ± 6.9 mL and the Microcirculatory blood flow ([1]; 15 mg/kg ip, 5 min after ligation) was 9.4 ± 3.7 mL. The Microcirculatory blood flow ([1]; 15 mg/kg ip, 15 min after ligation) was 12.8 ± 5.6 mL, the Microcirculatory blood flow ([1]; 15 mg/kg ip, 30 min after ligation) was 20.7 ± 3.2 mL and the Microcirculatory blood flow ([1]; 15 mg/kg ip, 45 min after ligation) was 25.0 ± 5.2 mL. The Microcirculatory blood flow ([1]; 15 mg/kg ip, 60 min after ligation) was 24.4 ± 4.8 mL, the “cerebral microcirculatory blood flow (in words)” value ([1]; 15 mg/kg, 30 minutes after the administration) was “increased slightly” and the Microcirculatory blood flow ([1]; 35 mg/kg ip, 5 min after ligation) was 10.8 ± 2.7 mL. The Microcirculatory blood flow ([1]; 35 mg/kg ip, 15 min after ligation) was 19.4 ± 5.1 mL, the Microcirculatory blood flow ([1]; 35 mg/kg ip, 30 min after ligation) was 32.7 ± 6.2 mL and the Microcirculatory blood flow ([1]; 35 mg/kg ip, 45 min after ligation) was 35.4 ± 8.2 mL. For the same compound, the Microcirculatory blood flow ([1]; 35 mg/kg ip, 60 min after ligation) was 35.2 ± 5.8 mL, the “cerebral microcirculatory blood flow (in words)” value ([1]; 35 mg/kg, 15 minutes after the administration) was “increased slightly” and the CK-MB ([2]; 10 mg/kg intragastric) was 1267.0 ± 274.4 U/L. For the same compound, the CK-MB ([2]; 20 mg/kg intragastric) was 1074.1 ± 116.8 U/L, the CK-MB ([2]; 40 mg/kg intragastric) was 906.3 ± 99.9 U/L and the “activity of creatine kinase isoenzyme (CK-MB) (in words)” value ([2]; all dose groups, 24 h later) was “decreased”. For the same compound, the MDA (malondialdehyde (MDA); 10 mg/kg intragastric) was 21.69 ± 27.94 nmol/mL, the MDA (malondialdehyde (MDA); 20 mg/kg intragastric) was 10.60 ± 11.156 nmol/mL and the MDA (malondialdehyde (MDA); 40 mg/kg intragastric) was 9.43 ± 6.57 nmol/mL. The “serum MDA content (in words)” value (malondialdehyde (MDA); middle and large dose groups, no significant difference from model control) was “decrease tendency”.
